# In patent US7612064B2, “Sulfopyrroles” (Takeda Pharmaceutical Company Limited, priority 2003, dated 2009):
# Columns and labels:
# [1] = tested on: HeLa; test: MTS proliferation assay; format: cell-based, human; conditions: 72 h
# Protocol: (§1) The assay is performed in 96 well tissue culture plates. […] The test compounds are added in 20 μl complete medium containing max 5% DMSO. The final compound concentrations in the assays are 10 μM, 3 μM, 1 μM and 0.3 μM, respectively. The assay plates are incubated for 72 h at culture conditions. The MTS reagent is prepared according to the manufacturer's protocol (Promega G1111). 20 μl MTS reagent are added to each well, the assay plates are quickly spun and incubated for another 3 h at culture conditions. Subsequently, the plates are shortly shacked and absorption measured with a microplate-reader at 492 nm.
# [2] = tested on: Jurkat; test: MTS proliferation assay; format: cell-based, human; conditions: 72 h
# Protocol: as §1
# [3] = tested on: MRC5; test: MTS proliferation assay; format: cell-based; conditions: MRC5, 72 h
# Protocol: as §1
# [4] = Hoechst 33342 nuclear staining; format: cell-based; conditions: for Hoechst 33342 nuclear staining score, H460: H460 cells; for Hoechst 33342 nuclear staining score, HeLa: HeLa cells; for Hoechst 33342 nuclear staining score, Jily: Jily cells; for Hoechst 33342 nuclear staining score, Jurkat: Jurkat cells; for Hoechst 33342 nuclear staining score, MRC5: MRC5 cells;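 as to all read-outs here: apoptotic nuclei scored 0 none 1 weak under 50% of cells 2 strong over 50% of cells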
# Protocol: This assay is performed in 96 well tissue culture plates. Appropriate number of cells (adherent cells: 3-5*10^3, suspension cells: 8-10*10^3) are being seeded out in 80 μl complete medium. Adherent cells are incubated for 24 h for proper spreading out before addition of test compounds while suspension cells are immediately treated with test compounds after seeding out. The test compounds are added in 20 μl complete medium containing max 5% DMSO. […] […] The assay plates are then further incubated for 30 min and subsequently analyzed with a standard inverted fluorescence microscope.
# The readout allows the determination of the fraction of apoptotic nuclei as well as other morphological criteria specific for apoptosis as a function of the treatment. The following scores are used: 0 relating to no activity, 1 relating to weak activity comprising less than 50% of the cells and score 2 relating to strong activity comprising more than 50% of the cells.
# [5] = conc 0.1 (final concentrations in μM), 24 h or 48 h incubation
# [6] = conc 0.3 (final concentrations in μM), 24 h or 48 h incubation
# [7] = conc 1 (final concentrations in μM), 24 h or 48 h incubation
# [8] = conc 3 (final concentrations in μM), 24 h or 48 h incubation
# [9] = conc 10 (final concentrations in μM), 24 h or 48 h incubation
structure (smiles),measurement,setting,value
COc1cc(-c2cc(CNc3ccc(S(N)(=O)=O)cc3)cn2S(=O)(=O)c2ccc(C)cc2)cc(OC)c1OC [Example 70],IC50,[1],> 1 µM
same,IC50,[2],< 1 µM
same,IC50,[3],> 1 µM
same,"Hoechst 33342 nuclear staining score, H460",[4]; conc 0.1,0
same,"Hoechst 33342 nuclear staining score, H460",[4]; conc 0.3,0
same,"Hoechst 33342 nuclear staining score, H460",[4]; conc 1,0
same,"Hoechst 33342 nuclear staining score, H460",[4]; conc 3,2 (strong activity comprising more than 50% of the cells)
same,"Hoechst 33342 nuclear staining score, HeLa",[4]; conc 0.1,0
same,"Hoechst 33342 nuclear staining score, HeLa",[4]; conc 0.3,0
same,"Hoechst 33342 nuclear staining score, HeLa",[4]; conc 1,0
same,"Hoechst 33342 nuclear staining score, HeLa",[4]; conc 3,0
same,"Hoechst 33342 nuclear staining score, Jily",[4]; conc 0.1,0
same,"Hoechst 33342 nuclear staining score, Jily",[4]; conc 0.3,0
same,"Hoechst 33342 nuclear staining score, Jily",[4]; conc 1,0
same,"Hoechst 33342 nuclear staining score, Jily",[4]; conc 3,2 (strong activity comprising more than 50% of the cells)
same,"Hoechst 33342 nuclear staining score, Jurkat",[4]; conc 0.1,0
same,"Hoechst 33342 nuclear staining score, Jurkat",[4]; conc 0.3,0
same,"Hoechst 33342 nuclear staining score, Jurkat",[4]; conc 1,2 (strong activity comprising more than 50% of the cells)
same,"Hoechst 33342 nuclear staining score, Jurkat",[4]; conc 3,2 (strong activity comprising more than 50% of the cells)
same,"Hoechst 33342 nuclear staining score, MRC5",[4]; conc 0.1,0
same,"Hoechst 33342 nuclear staining score, MRC5",[4]; conc 0.3,0
same,"Hoechst 33342 nuclear staining score, MRC5",[4]; conc 1,0
same,"Hoechst 33342 nuclear staining score, MRC5",[4]; conc 3,2 (strong activity comprising more than 50% of the cells)
same,"Hoechst 33342 nuclear staining score, PBLs",[4]; conc 0.1,0
same,"Hoechst 33342 nuclear staining score, PBLs",[4]; conc 0.3,0
same,"Hoechst 33342 nuclear staining score, PBLs",[4]; conc 1,0
same,"Hoechst 33342 nuclear staining score, PBLs",[4]; conc 3,0
Cc1ccc(S(=O)(=O)n2cc(CNCCCN3CCCC3)cc2-c2ccc3c(c2)OCO3)cc1 [Example 22],IC50,[1],> 1 µM
same,IC50,[2],> 1 µM
same,IC50,[3],> 1 µM
same,"Hoechst 33342 nuclear staining score, HeLa",[4]; [5],0
same,"Hoechst 33342 nuclear staining score, HeLa",[4]; [6],0
same,"Hoechst 33342 nuclear staining score, HeLa",[4]; [7],0
same,"Hoechst 33342 nuclear staining score, HeLa",[4]; [8],0
same,"Hoechst 33342 nuclear staining score, Jurkat",[4]; [5],0
same,"Hoechst 33342 nuclear staining score, Jurkat",[4]; [6],0
same,"Hoechst 33342 nuclear staining score, Jurkat",[4]; [7],0
same,"Hoechst 33342 nuclear staining score, Jurkat",[4]; [8],0
Cc1ccc(S(=O)(=O)n2cc(CNCCN3CCN(Cc4ccccc4)CC3)cc2-c2ccc3c(c2)OCO3)cc1 [Example 16],IC50,[1],> 1 µM
same,IC50,[2],> 1 µM
same,IC50,[3],> 1 µM
same,"Hoechst 33342 nuclear staining score, HeLa",[4]; [5],0
same,"Hoechst 33342 nuclear staining score, HeLa",[4]; [6],0
same,"Hoechst 33342 nuclear staining score, HeLa",[4]; [7],0
same,"Hoechst 33342 nuclear staining score, HeLa",[4]; [8],1 (weak activity comprising less than 50% of the cells)
same,"Hoechst 33342 nuclear staining score, Jurkat",[4]; [5],0
same,"Hoechst 33342 nuclear staining score, Jurkat",[4]; [6],0
same,"Hoechst 33342 nuclear staining score, Jurkat",[4]; [7],0
same,"Hoechst 33342 nuclear staining score, Jurkat",[4]; [8],0
Cc1ccc(S(=O)(=O)n2cc(CNc3ccc(N4CCOCC4)c(Cl)c3)cc2-c2ccc3c(c2)OCO3)cc1 [Example 38],IC50,[1],> 1 µM
same,IC50,[2],> 1 µM
same,IC50,[3],> 1 µM
same,"Hoechst 33342 nuclear staining score, HeLa",[4]; [6],0
same,"Hoechst 33342 nuclear staining score, HeLa",[4]; [7],0
same,"Hoechst 33342 nuclear staining score, HeLa",[4]; [8],0
same,"Hoechst 33342 nuclear staining score, HeLa",[4]; [9],0
same,"Hoechst 33342 nuclear staining score, Jurkat",[4]; [6],0
same,"Hoechst 33342 nuclear staining score, Jurkat",[4]; [7],0
same,"Hoechst 33342 nuclear staining score, Jurkat",[4]; [8],0
same,"Hoechst 33342 nuclear staining score, Jurkat",[4]; [9],0
COc1cc(-c2cc(CNCCCN3CCN(C)CC3)cn2S(=O)(=O)c2ccc(C)cc2)cc(OC)c1OC [Example 3],IC50,[1],> 1 µM
same,IC50,[2],> 1 µM
same,IC50,[3],> 1 µM
NC(=O)c1cncc(-c2cc(-c3ccc4c(c3)OCO4)n(S(=O)(=O)c3cccc(Cl)c3)c2)c1 [Example 75],IC50,[1],> 1 µM
same,IC50,[2],> 1 µM
same,IC50,[3],> 1 µM
same,"Hoechst 33342 nuclear staining score, H460",[4]; conc 0.1,0
same,"Hoechst 33342 nuclear staining score, H460",[4]; conc 0.3,0
same,"Hoechst 33342 nuclear staining score, H460",[4]; conc 1,0
same,"Hoechst 33342 nuclear staining score, H460",[4]; conc 3,0
same,"Hoechst 33342 nuclear staining score, HeLa",[4]; conc 0.1,0
same,"Hoechst 33342 nuclear staining score, HeLa",[4]; conc 0.3,0
same,"Hoechst 33342 nuclear staining score, HeLa",[4]; conc 1,0
same,"Hoechst 33342 nuclear staining score, HeLa",[4]; conc 3,0
same,"Hoechst 33342 nuclear staining score, Jily",[4]; conc 0.1,0
same,"Hoechst 33342 nuclear staining score, Jily",[4]; conc 0.3,0
same,"Hoechst 33342 nuclear staining score, Jily",[4]; conc 1,0
same,"Hoechst 33342 nuclear staining score, Jily",[4]; conc 3,0
same,"Hoechst 33342 nuclear staining score, Jurkat",[4]; conc 0.1,0
same,"Hoechst 33342 nuclear staining score, Jurkat",[4]; conc 0.3,0
same,"Hoechst 33342 nuclear staining score, Jurkat",[4]; conc 1,0
same,"Hoechst 33342 nuclear staining score, Jurkat",[4]; conc 3,0
same,"Hoechst 33342 nuclear staining score, MRC5",[4]; conc 0.1,0
same,"Hoechst 33342 nuclear staining score, MRC5",[4]; conc 0.3,0
same,"Hoechst 33342 nuclear staining score, MRC5",[4]; conc 1,0
same,"Hoechst 33342 nuclear staining score, MRC5",[4]; conc 3,0
same,"Hoechst 33342 nuclear staining score, PBLs",[4]; conc 0.1,0
same,"Hoechst 33342 nuclear staining score, PBLs",[4]; conc 0.3,0
same,"Hoechst 33342 nuclear staining score, PBLs",[4]; conc 1,0
same,"Hoechst 33342 nuclear staining score, PBLs",[4]; conc 3,0
COc1cc(-c2cc(-c3cncc(C(=O)O)c3)cn2S(=O)(=O)c2ccc(C)cc2)cc(OC)c1OC.N [Example 66],IC50,[1],> 1 µM
same,IC50,[2],> 1 µM
same,IC50,[3],> 1 µM
same,"Hoechst 33342 nuclear staining score, H460",[4]; conc 0.1,0
same,"Hoechst 33342 nuclear staining score, H460",[4]; conc 0.3,0
same,"Hoechst 33342 nuclear staining score, H460",[4]; conc 1,0
same,"Hoechst 33342 nuclear staining score, H460",[4]; conc 3,0
same,"Hoechst 33342 nuclear staining score, HeLa",[4]; conc 0.1,0
same,"Hoechst 33342 nuclear staining score, HeLa",[4]; conc 0.3,0
same,"Hoechst 33342 nuclear staining score, HeLa",[4]; conc 1,0
same,"Hoechst 33342 nuclear staining score, HeLa",[4]; conc 3,0
same,"Hoechst 33342 nuclear staining score, Jily",[4]; conc 0.1,0
same,"Hoechst 33342 nuclear staining score, Jily",[4]; conc 0.3,0
same,"Hoechst 33342 nuclear staining score, Jily",[4]; conc 1,0
same,"Hoechst 33342 nuclear staining score, Jily",[4]; conc 3,0
same,"Hoechst 33342 nuclear staining score, Jurkat",[4]; conc 0.1,0
same,"Hoechst 33342 nuclear staining score, Jurkat",[4]; conc 0.3,0
same,"Hoechst 33342 nuclear staining score, Jurkat",[4]; conc 1,0
same,"Hoechst 33342 nuclear staining score, Jurkat",[4]; conc 3,0
same,"Hoechst 33342 nuclear staining score, MRC5",[4]; conc 0.1,0
same,"Hoechst 33342 nuclear staining score, MRC5",[4]; conc 0.3,0
same,"Hoechst 33342 nuclear staining score, MRC5",[4]; conc 1,0
same,"Hoechst 33342 nuclear staining score, MRC5",[4]; conc 3,0
same,"Hoechst 33342 nuclear staining score, PBLs",[4]; conc 0.1,0
same,"Hoechst 33342 nuclear staining score, PBLs",[4]; conc 0.3,0
same,"Hoechst 33342 nuclear staining score, PBLs",[4]; conc 1,0
same,"Hoechst 33342 nuclear staining score, PBLs",[4]; conc 3,0
Cc1ccc(S(=O)(=O)n2cc(CNc3ccc(N4CCOCC4)cc3)cc2-c2ccc3c(c2)OCO3)cc1.Cl [Example 14],IC50,[1],> 1 µM
same,IC50,[2],> 1 µM
same,IC50,[3],> 1 µM
same,"Hoechst 33342 nuclear staining score, HeLa",[4]; [5],0
same,"Hoechst 33342 nuclear staining score, HeLa",[4]; [6],0
same,"Hoechst 33342 nuclear staining score, HeLa",[4]; [7],0
same,"Hoechst 33342 nuclear staining score, HeLa",[4]; [8],2 (strong activity comprising more than 50% of the cells)
same,"Hoechst 33342 nuclear staining score, Jurkat",[4]; [5],0
same,"Hoechst 33342 nuclear staining score, Jurkat",[4]; [6],0
same,"Hoechst 33342 nuclear staining score, Jurkat",[4]; [7],0
same,"Hoechst 33342 nuclear staining score, Jurkat",[4]; [8],2 (strong activity comprising more than 50% of the cells)
Cc1ccc(S(=O)(=O)n2cc(CNC(CN3CCN(C)CC3)c3ccccc3)cc2-c2ccc3c(c2)OCO3)cc1 (stereo not shown) [Example 24],IC50,[2],> 1 µM
same,IC50,[3],> 1 µM
same,"Hoechst 33342 nuclear staining score, HeLa",[4]; [5],0
same,"Hoechst 33342 nuclear staining score, HeLa",[4]; [6],0
same,"Hoechst 33342 nuclear staining score, HeLa",[4]; [7],0
same,"Hoechst 33342 nuclear staining score, HeLa",[4]; [8],0
same,"Hoechst 33342 nuclear staining score, Jurkat",[4]; [5],0
same,"Hoechst 33342 nuclear staining score, Jurkat",[4]; [6],0
same,"Hoechst 33342 nuclear staining score, Jurkat",[4]; [7],0
same,"Hoechst 33342 nuclear staining score, Jurkat",[4]; [8],0
"NC(=O)c1ccc(-c2cc(-c3ccc4c(c3)OCO4)n(S(=O)(=O)c3cccc(Cl)c3)c2)cc1 [Example 5, p-(1-[m-chlorobenzenesulfonyl]-2-[3,4-methylenedioxyphenyl]-4pyrrolyl)-benzamide]",IC50,[1]; Homo sapiens,> 1 µM
same,IC50,[2]; Homo sapiens,> 1 µM
same,IC50,[3]; Homo sapiens,> 1 µM
Cc1ccc(S(=O)(=O)n2cc(-c3ccc(C(N)=O)cc3)cc2-c2ccc3c(c2)OCO3)cc1 [Example 47],IC50,[1],> 1 µM
same,IC50,[2],> 1 µM
same,"Hoechst 33342 nuclear staining score, HeLa",[4]; [5],0
same,"Hoechst 33342 nuclear staining score, HeLa",[4]; [6],0
same,"Hoechst 33342 nuclear staining score, HeLa",[4]; [7],2 (strong activity comprising more than 50% of the cells)
same,"Hoechst 33342 nuclear staining score, HeLa",[4]; [8],2 (strong activity comprising more than 50% of the cells)
same,"Hoechst 33342 nuclear staining score, Jurkat",[4]; [5],0
same,"Hoechst 33342 nuclear staining score, Jurkat",[4]; [6],0
same,"Hoechst 33342 nuclear staining score, Jurkat",[4]; [7],0
same,"Hoechst 33342 nuclear staining score, Jurkat",[4]; [8],0
"CN1CCN(CCCNCc2cc(-c3ccc4c(c3)OCO4)n(S(=O)(=O)c3cccc(Cl)c3)c2)CC1 [Example 4, 1-(m-Chlorobenzenesulfonyl)-2-(3,4-methylenedioxyphenyl)-4-(N-[3-{4-methylpiperazinyl}-propyl]-aminomethyl)-pyrrole]",IC50,[1],> 1 µM
same,IC50,[2],> 1 µM
same,IC50,[3],> 1 µM
